Assay results reported in patent US6013660A (priority 1996, dated 2000).
“Also recorded” adds a separate entry of the source. Where two headings read alike, the source gives them in different places.

Assays:
M. tuberculosis Erdman [1] = experiment: M. tuberculosis Erdman growth in broth, various concentrations of inhibitor (Examples 5, 12); format: cell-based, Mycobacterium tuberculosis; details: for inhibitory effect on M. tuberculosis growth (comparison of known GS inhibitors): relative to L-methionine-S-sulfoximine
M. tuberculosis Erdman [2] = experiment: Effect of L-glutamine on M. tuberculosis Erdman broth cultures with or without MS, Example 13; format: cell-based, Mycobacterium tuberculosis; details: for effect of L-glutamine on M. tuberculosis growth without MS: no MS, FIG. 14; for effect of L-glutamine on M. tuberculosis growth with subinhibitory MS: subinhibitory (minimally inhibitory, FIG. 15) MS
Protocol: L-glutamine (L-GLN) was added to MS-treated cultures of M. tuberculosis Erdman.

M. smegmatis 1-2c = details: 0.2, 2, 20, 200 μM MS; FIG. 10
[3] = target: T1, extracellular glutamine synthetase (Mycobacterium avium, UniProt A0ACG7XF78); experiment: biochemical; details: read-out: concentration of MS required to completely inhibit glutamine synthetase activity
[4] = tested on: L. pneumophila Philadelphia 1; details: 0.2, 2, 20, 200 μM MS; FIG. 11
[5] = target: T2, extracellular glutamine synthetase (Mycobacterium tuberculosis, UniProt P9WN39)
[6] = tested on: M. tuberculosis, Erdman strain; details: 2000 μM MS added at 0, 1, 2, 3, 4 weeks; FIG. 3
E. coli DH5α = details: 0.2, 2, 20, 200 μM MS; FIG. 12
THP-1 cells = experiment: Growth/toxicity in human monocyte cell line THP-1, Examples 14 and 15; format: cell-based; details: for effect on growth rate of THP-1 cells: 200 μM MS, FIG. 19
M. bovis BCG = details: FIG. 7; listed as MS
M. phlei = details: 0.2, 2, 20, 200 μM MS; FIG. 9
[7] = target: cell-associated glutamine synthetase (Mycobacterium tuberculosis, UniProt P9WN39); details: 20 μM MS; vs untreated; FIG. 22
glutamine synthetase = details: Manning et al., 1969; cited from earlier work
M. tuberculosis H37Rv = details: 0.2-200 μM MS; FIG. 5; similar to Erdman; listed as MS
[8] = target: T1, extracellular glutamine synthetase; details: M. avium vs highly pathogenic strains
[9] = target: T2, extracellular glutamine synthetase; experiment: biochemical; details: read-out: extracellular GS activity relative to untreated cultures
M. tuberculosis Erdman [10] = details: 200 μM MS
M. tuberculosis Erdman [11] = experiment: Control: effect of SDS on M. tuberculosis Erdman growth in broth culture (FIG. 24); format: cell-based, Mycobacterium tuberculosis; details: 0.1% SDS
Protocol: In the presence of 200 μM MS, M. tuberculosis growth was inhibited by almost 1 log by two days and by nearly 2 logs by five days.

SMILES: CS(=N)(=O)CCC(N)C(=O)O (racemic) [DL-methionine-SR-sulfoximine, reference compound]
- potency in inhibiting growth of M. tuberculosis relative to L-methionine-S-sulfoximine (M. tuberculosis Erdman [1]; FIG. 13 vs FIG. 4): about 1/4
- inhibitory effect on M. tuberculosis growth (comparison of known GS inhibitors) (M. tuberculosis Erdman [1]): significantly weaker inhibitory effect on the growth of M. tuberculosis

SMILES: NC(=O)CC[C@H](N)C(=O)O [L-glutamine]
- effect of L-glutamine on MS inhibition of M. tuberculosis (M. tuberculosis Erdman [2]; inhibitory MS (2, 20, 200 μM), FIGS. 16-18): reverse the inhibitory effect of MS in a dose-dependent fashion; also recorded: reversed the inhibitory effect of MS
- effect of L-glutamine on M. tuberculosis growth without MS (M. tuberculosis Erdman [2]): no or little influence on M. tuberculosis growth; also recorded: lack of effect
- effect of L-glutamine on M. tuberculosis growth without MS (M. tuberculosis Erdman [2]; listed as L-GLN): no effect on the growth
- effect of L-glutamine on M. tuberculosis growth with subinhibitory MS (M. tuberculosis Erdman [2]): no or little influence on M. tuberculosis growth; also recorded: lack of effect
- effect of L-glutamine on M. tuberculosis growth with subinhibitory MS (M. tuberculosis Erdman [2]; listed as L-GLN): no effect on the growth

SMILES: C[S@](=N)(=O)CC[C@H](N)C(=O)O [L-methionine-S-sulfoximine]
- growth inhibition of M. smegmatis (M. smegmatis 1-2c): lack of effect
- growth inhibition of M. tuberculosis Erdman in broth (M. tuberculosis Erdman [1]; 2 μM MS): strongly inhibited
- growth inhibition of M. tuberculosis Erdman in broth (M. tuberculosis Erdman [1]; 20 μM MS): completely inhibited
- growth inhibition of M. tuberculosis Erdman in broth (M. tuberculosis Erdman [1]; 200 μM MS): completely inhibited
- growth inhibition of M. tuberculosis Erdman in broth, overall (M. tuberculosis Erdman [1]; 0.2, 2, 20, 200 μM, OD540 weekly, FIG. 4, listed as MS): strongly inhibits, in dose-dependent fashion; also recorded: inhibited the growth of M. tuberculosis Erdman in broth culture at all concentrations tested
- minimal effective concentration (M. tuberculosis Erdman [1]; Mycobacterium tuberculosis, broth culture, FIGS. 4 and 5 (Erdman and H37Rv), read-out: MS concentrations as low as ... inhibited M. tuberculosis growth): 0.2 µM
- IC100 [3]: 200 µM
- growth inhibition of L. pneumophila [4]: lack of effect
- preferential inhibition of extracellular over cell-associated GS activity ([5]; 20 μM MS, extracellular vs cell-associated): preferentially inhibits extracellular GS activity
- extracellular GS activity in M. tuberculosis cultures ([5]; 0.2-200 μM MS from week 1, FIG. 20): marked decrease in extracellular GS activity
- increase in extracellular GS activity over 3 weeks (week 1 to week 4) ([5]; 2-200 μM MS): little or no increase in extracellular GS activity
- inhibition of M. tuberculosis growth in broth by time of addition [6]: inhibited the growth of M. tuberculosis in broth cultures when added up to 3 weeks following inoculation
- growth inhibition of E. coli (E. coli DH5α): lack of effect
- growth and viability of THP-1 cells (THP-1 cells; 0 or 200 μM MS): grew at the same rate and maintained high viability
- effect on growth rate of THP-1 cells (THP-1 cells): lack of effect
- effect on growth rate of THP-1 cells (THP-1 cells; listed as MS): no influence on the growth rate of these cells
- toxicity against THP-1 cells (THP-1 cells; up to 200 μM MS, listed as MS): no toxicity toward a human monocyte cell line; also recorded: no evidence of toxicity against THP-1 cells; also recorded: no evident toxicity for THP-1 cells up to a concentration of 200 μM
- growth inhibition of M. bovis BCG in broth (M. bovis BCG): strongly inhibits, in dose-dependent fashion
- growth inhibition of M. phlei (M. phlei): lack of effect
- cell-associated GS activity [7]: only slightly reduced
- inhibition of glutamine synthetase (glutamine synthetase): inhibits glutamine synthetase
- growth inhibition of M. tuberculosis H37Rv in broth (M. tuberculosis H37Rv): strongly inhibits, in dose-dependent fashion
- concentration required to inhibit GS activity compared with M. tuberculosis and M. bovis [8]: higher than that required to inhibit the glutamine synthetase activity of the highly pathogenic strains of M. tuberculosis and M. bovis
- activity at 20 µM [9]: < 25%
- Colony forming units of M. tuberculosis Erdman from infected THP-1 human monocytes (M. tuberculosis Erdman [10]; Day 0): 8.58 × 10^5 CFU
- Colony forming units of M. tuberculosis Erdman from infected THP-1 human monocytes (M. tuberculosis Erdman [10]; Day 2): 6.22 × 10^5 CFU
- Colony forming units of M. tuberculosis Erdman from infected THP-1 human monocytes (M. tuberculosis Erdman [10]; Day 5a, lysed with sodium dodecyl sulfate): 4.80 × 10^5 CFU
- Colony forming units of M. tuberculosis Erdman from infected THP-1 human monocytes (M. tuberculosis Erdman [10]; Day 5b, lysed by vortexing): 4.32 × 10^5 CFU
- inhibition of intracellular M. tuberculosis growth (M. tuberculosis Erdman [10]; by five days): ~2 logs
- inhibition of intracellular M. tuberculosis growth (M. tuberculosis Erdman [10]; by two days): ~1 log

SMILES: CCCCCCCCCCCCOS(=O)(=O)[O-].[Na+] [SDS, sodium dodecyl sulfate]
- influence of SDS on growth of M. tuberculosis in broth (M. tuberculosis Erdman [11]): had no influence on growth of M. tuberculosis in broth culture

SMILES: CP(=O)(O)CC[C@H](N)C(=O)O [phosphinothricin, reference compound]
- inhibitory effect on M. tuberculosis growth (comparison of known GS inhibitors) (M. tuberculosis Erdman [1]): only a very minor inhibitory effect on M. tuberculosis growth
